The target in assay [1] is T1, GABAA receptors in activated human CD4+ T cells (Homo sapiens, UniProt P28476). Description: Calcium imaging: agonist-evoked intracellular Ca2+ response in activated CD4+ T cells. The assay is classed as cell-based. The text has this: Human blood samples and blood buffy coats were obtained from Uppsala University Hospital (Uppsala Akademiska sjukhuset), the protocol of which was approved by the Regional Research Ethics Committee in Uppsala (Dnr 2013/347). All individuals who donated blood were voluntarily recruited. Peripheral blood mononuclear cells (PBMCs) were isolated from blood samples using density-gradient centrifugation with Ficoll-Paque™ PLUS (Sigma Aldrich, Sweden). Subsequently, CD4^+ T lymphocytes were isolated from the PBMCs by negative selection, utilizing a human CD4^+ T lymphocyte isolation kit (Miltenyi Biotec, Germany) as per the manufacturer’s instructions. The freshly isolated CD4^+ T lymphocytes (1 million cells/mL) were suspended in human plasma-like medium (HPLM) (Gibco, Fisher Scientific, Sweden) containing 10% heat-inactivated dialyzed fetal bovine serum (Gibco, Fisher Scientific, Sweden), 100 μg/mL streptomycin, 100 U/mL penicillin (Gibco, Fisher Scientific, Sweden), and 5 μM β-mercaptoethanol (Gibco, Fisher Scientific, Sweden). The cells were activated in a 96-well plate (1 × 10^5–1.2 × 10^5 cells/well) with 3 μg/mL plate-bound anti-CD3 antibody (BD Biosciences, USA) for 72 h. Insulin (1 nM) was added at 48 h after the activation of the cells. The anti-CD3 concentration (5 μg/mL) used by Jacobs et al. ([14]) is similar to the one employed in this study. […] Akt-dependent signaling is activated by insulin at 48 h post-activation and is reminiscent of the anti-CD28-evoked signaling ([14]).
(§1) Calcium imaging was performed as previously described ([12]). In brief, cells were loaded with 3 μM Fluo-8 AM calcium indicator (AAT Bioquest, Pleasanton, CA, USA) for 10 min at 37 °C and then seeded onto coverslips coated with 5% (3-aminopropyl)triethoxysilane (Sigma Aldrich) for 20 min at 37 °C. Calcium imaging was performed using a Zeiss LSM700 confocal microscope with a ×20 objective, capturing images at 0.5-s intervals. The recording solution was prepared by mixing two types of RPMI 1640 media, one containing 11 mM glucose (Gibco, Fisher Scientific, Sweden) and the other is glucose-free (Gibco, Fisher Scientific, Sweden). They were mixed in a 1:1 ratio, giving a final glucose concentration of 5.5 mM. The drugs were diluted in the recording solution and perfused into the chamber at specific concentrations using a peristaltic pump. After each drug application, the cells were perfused with the recording solution only to remove the drug. When the cells were again in the recording solution only, then the next test drug concentration was perfused into the chamber. This was done so that the receptors/cells had always been in a drug-free solution before a drug application, thus avoiding potential cumulative drug effects such as run-down or desensitization. The area around the individual cells was marked, and absolute fluorescence intensity values (F) were extracted using ZENBlue software. The relative intensity (F/Fmedian) for each cell was calculated for every recorded image and plotted against time. The peak relative intensity during the drug application was considered the drug’s response. Data are presented for all cells as scatter plots and box and whisker plots.
Single-cell data presentation and agonist-Ca^2+-response data were fitted in GraphPad Prism 10 (GraphPad Software Inc., La Jolla, CA, USA). The data were fitted using nonlinear regression with a standard dose–response model:
(F/Fmedian)max=[agonist]/[agonist]+(EC50)agonist

In assay [2] the target is T1, GABAA receptors in activated human CD4+ T cells. As to conditions: ref [12], cited from earlier work.
Assay [3] has as its system human resting CD4+ T cells. Description: Calcium imaging in resting CD4+ T cells. Type of assay: cell-based. As to conditions: GABA 500 nM; n = 47 cells. As to the method: as §1, with “This was done so that the receptors/cells had always been in a drug-free solution before a drug application, thus avoiding potential cumulative drug effects such as run-down or desensitization.” left out, “The peak relative intensity during the drug application was considered the drug’s response. Data are presented for all cells as scatter plots and box and whisker plots.” left out

A further assay deals with T2, CRAC channels (Homo sapiens, UniProt Q96D31).
T2 construct: endogenous in cells
Description: Calcium imaging: block of GABA-mediated Ca2+ influx by CRAC channel inhibitor. Type of assay: cell-based. The following applies: YM-58483 10 μM, acute application; n = 116 cells, N = 3 donors. The text has this:
Human blood samples and blood buffy coats were obtained from Uppsala University Hospital (Uppsala Akademiska sjukhuset), the protocol of which was approved by the Regional Research Ethics Committee in Uppsala (Dnr 2013/347). All individuals who donated blood were voluntarily recruited. Peripheral blood mononuclear cells (PBMCs) were isolated from blood samples using density-gradient centrifugation with Ficoll-Paque™ PLUS (Sigma Aldrich, Sweden). Subsequently, CD4^+ T lymphocytes were isolated from the PBMCs by negative selection, utilizing a human CD4^+ T lymphocyte isolation kit (Miltenyi Biotec, Germany) as per the manufacturer’s instructions. The freshly isolated CD4^+ T lymphocytes (1 million cells/mL) were suspended in human plasma-like medium (HPLM) (Gibco, Fisher Scientific, Sweden) containing 10% heat-inactivated dialyzed fetal bovine serum (Gibco, Fisher Scientific, Sweden), 100 μg/mL streptomycin, 100 U/mL penicillin (Gibco, Fisher Scientific, Sweden), and 5 μM β-mercaptoethanol (Gibco, Fisher Scientific, Sweden). […]
Calcium imaging was performed as previously described ([12]). […] The area around the individual cells was marked, and absolute fluorescence intensity values (F) were extracted using ZENBlue software. The relative intensity (F/Fmedian) for each cell was calculated for every recorded image and plotted against time. […]

The next assay deals with T3, CRAC channel current (Homo sapiens, UniProt Q96D31).
T3 construct: endogenous in cells
In words: Whole-cell patch-clamp recording of CRAC-channel-mediated current. The assay is classed as cell-based. (In general: The patch-clamp technique gives a direct electrical read-out from membranes.)

A further assay addresses T4, KCa3.1 channels (Homo sapiens, UniProt O15554).
T4 construct: endogenous in cells
Description: Calcium imaging: block of GABA-activated Ca2+ signal by KCa3.1 blocker. Type of assay: cell-based. As to conditions: GABA 500 nM; TRAM-34 1 µM; average, n = 169 cells, N = 3 donors.

[4] abbreviates: read-out: EC50, half-maximal activation concentration of the evoked Ca2+ signal; activated CD4+ T cells, 72 h post-activation, 1 nM insulin last 24 h, 5.5 mM glucose.

Data on 8 compounds can be found in publication PMC13194042, “GABAA receptor agonists modulate intracellular Ca^2+ levels in activated human CD4^+ T cells” (Frontiers in Immunology, 2026).

Like-named read-outs stand apart in the source and are kept apart here.

T1 sequence (P28476 21-465): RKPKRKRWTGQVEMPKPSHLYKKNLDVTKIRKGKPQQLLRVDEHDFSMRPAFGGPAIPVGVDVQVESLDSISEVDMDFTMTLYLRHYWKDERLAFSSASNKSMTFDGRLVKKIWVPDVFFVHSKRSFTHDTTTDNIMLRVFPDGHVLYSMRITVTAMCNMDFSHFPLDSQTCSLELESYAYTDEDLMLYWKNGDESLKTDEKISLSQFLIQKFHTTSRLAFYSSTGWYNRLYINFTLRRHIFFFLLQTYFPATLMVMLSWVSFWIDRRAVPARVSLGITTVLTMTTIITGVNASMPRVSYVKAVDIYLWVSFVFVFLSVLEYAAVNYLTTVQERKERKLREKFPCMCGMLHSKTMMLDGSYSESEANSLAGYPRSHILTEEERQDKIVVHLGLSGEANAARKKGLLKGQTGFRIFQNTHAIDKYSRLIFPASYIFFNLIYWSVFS
T3 sequence (Q96D31 whole entry): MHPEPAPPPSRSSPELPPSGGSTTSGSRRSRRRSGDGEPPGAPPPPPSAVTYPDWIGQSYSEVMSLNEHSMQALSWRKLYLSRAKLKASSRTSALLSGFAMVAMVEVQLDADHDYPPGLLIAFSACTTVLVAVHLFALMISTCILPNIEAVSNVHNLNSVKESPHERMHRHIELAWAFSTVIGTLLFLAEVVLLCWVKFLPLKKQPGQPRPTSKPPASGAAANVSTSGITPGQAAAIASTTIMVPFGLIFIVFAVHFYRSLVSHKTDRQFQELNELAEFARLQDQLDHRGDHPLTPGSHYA
T2 sequence (Q96D31 whole entry): as above
T4 sequence (O15554 whole entry): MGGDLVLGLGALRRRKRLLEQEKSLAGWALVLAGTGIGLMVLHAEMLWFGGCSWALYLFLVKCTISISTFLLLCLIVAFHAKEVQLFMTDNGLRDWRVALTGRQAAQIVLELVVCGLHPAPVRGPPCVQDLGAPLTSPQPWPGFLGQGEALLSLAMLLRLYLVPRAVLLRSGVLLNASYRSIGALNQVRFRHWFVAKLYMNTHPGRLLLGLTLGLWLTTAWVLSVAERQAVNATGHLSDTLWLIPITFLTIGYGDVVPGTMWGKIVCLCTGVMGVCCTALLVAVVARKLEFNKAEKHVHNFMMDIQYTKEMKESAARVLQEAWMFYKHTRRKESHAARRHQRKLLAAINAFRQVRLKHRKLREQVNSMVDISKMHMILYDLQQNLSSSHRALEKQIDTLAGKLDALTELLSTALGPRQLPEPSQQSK
Description for CRAC channel current: To study the effect of YM58483 and picrotoxin (PTX) on CRAC-channel-mediated currents, the electrophysiological patch-clamp recordings were done in the whole-cell configuration. The extracellular solution was composed of the following (in mM): 155 NaCl, 4.5 KCl, 2 CaCl2, 1 MgCl2, 5 HEPES, and 5.6 glucose (pH 7.4, adjusted with NaOH). The pipette solution consisted of the following (in mM): 140 Cs methanesulfonate, 10 NaCl, 3 MgCl2, 10 HEPES, and 10 EGTA (pH 7.3, with CsOH). We further examined the recovery of currents during repeated drug applications to evaluate the level of run-down and desensitization, if present. In these experiments, in order to keep the intracellular chloride concentration intact, gramicidin (2.6 μg/mL) was used to obtain the perforated configuration. The extracellular solution (in mM) contained the following: 157 NaCl, 4.5 KCl, 0.5 CaCl2, 1 MgCl2, 5 HEPES, and 5.6 glucose (pH 7.4, adjusted with NaOH), and the pipette solution consisted of the following (mM): 149 KCl, 2 CaCl2, 1 MgCl2, 1 NaCl, 10 HEPES, and 5.6 glucose (pH 7.3, adjusted with KOH). […] Recordings were performed with the help of an Axopatch 200B amplifier, filtered at 2 kHz, and digitized at 10 kHz with an analog-to-digital converter. For the recordings, the Clampex 10.5 (Molecular Devices, San Jose, CA, USA) program was used. […]
Description for KCa3.1 channels: Peripheral blood mononuclear cells (PBMCs) were isolated from blood samples using density-gradient centrifugation with Ficoll-Paque™ PLUS (Sigma Aldrich, Sweden). Subsequently, CD4^+ T lymphocytes were isolated from the PBMCs by negative selection, utilizing a human CD4^+ T lymphocyte isolation kit (Miltenyi Biotec, Germany) as per the manufacturer’s instructions. The freshly isolated CD4^+ T lymphocytes (1 million cells/mL) were suspended in human plasma-like medium (HPLM) (Gibco, Fisher Scientific, Sweden) containing 10% heat-inactivated dialyzed fetal bovine serum (Gibco, Fisher Scientific, Sweden), 100 μg/mL streptomycin, 100 U/mL penicillin (Gibco, Fisher Scientific, Sweden), and 5 μM β-mercaptoethanol (Gibco, Fisher Scientific, Sweden). The cells were activated in a 96-well plate (1 × 10^5–1.2 × 10^5 cells/well) with 3 μg/mL plate-bound anti-CD3 antibody (BD Biosciences, USA) for 72 h. […]
In brief, cells were loaded with 3 μM Fluo-8 AM calcium indicator (AAT Bioquest, Pleasanton, CA, USA) for 10 min at 37 °C and then seeded onto coverslips coated with 5% (3-aminopropyl)triethoxysilane (Sigma Aldrich) for 20 min at 37 °C. […] The area around the individual cells was marked, and absolute fluorescence intensity values (F) were extracted using ZENBlue software. The relative intensity (F/Fmedian) for each cell was calculated for every recorded image and plotted against time. […]

In the case of `NC/C=C/C(=O)O` [TACA, trans-4-aminocrotonic acid], in assay [1] (TACA vs GABA), the “EC50 for the Ca2+-evoked signal relative to GABA (fold higher)” value was “approximately 500 fold”. The “relative maximum Ca2+ signal (F/Fmedian)” value in assay [1] (in 500 nM TACA) is reported as 1.10. For the same compound, the EC50 in assay [1] (setting [4]) worked out at 2200 pM.

For the compound `O=C(O)C1=CCNCC1` [isoguvacine], the EC50 in assay [1] (activated CD4+ T cells, 72 h post-activation, 1 nM insulin last 24 h, 5.5 mM glucose; read-out: EC50, half-maximal activation concentration of the evoked Ca2+ signal) amounted to 54400 pM. In addition, in assay [1] (in 10 μM isoguvacine), the “relative maximum Ca2+ signal (F/Fmedian)” value was determined as 1.13.

Take `NCc1cc(=O)[nH]o1` [muscimol]: the “relative maximum Ca2+ signal (F/Fmedian)” value in assay [1] (at 1 μM muscimol) is recorded as “approximately 1.17”. The EC50 in assay [1] (setting [4]) was 162 pM.

Regarding `NCCCC(=O)O` [GABA, γ-Aminobutyric acid], the EC50 in assay [2] (read-out: EC50 of the GABA-evoked Ca2+ signal) was 5 pM. Moreover, the “Ca2+ response in resting CD4+ T cells” value in assay [3] is “does not evoke a calcium response”.

For `Oc1noc2c1CCNC2` [THIP, 4,5,6,7-tetrahydroisoxazolo(5,4-c)pyridin-3-ol], the “relative maximum Ca2+ signal (F/Fmedian)” value in assay [1] (in 100 nM THIP) was 1.20. For the same compound, the EC50 in assay [1] (setting [4]) was determined as 5 pM.

For the compound `Cc1nnsc1C(=O)Nc1ccc(-n2nc(C(F)(F)F)cc2C(F)(F)F)cc1` [YM58483], the “effect on GABA (500 nM)-evoked increase in intracellular Ca2+ levels” value on CRAC channels was “inhibited”. At CRAC channel current (10 μM YM58483, whole-cell, voltage ramps, current normalized to control), the “reduction of the Ca2+ (CRAC channel) current” value was “approximately 40%”.

As to Picrotoxin, the “effect on the Ca2+ (CRAC channel) current” value at CRAC channel current (whole-cell, current at -80 mV normalized to control, n = 3 cells, N = 2 donors) is “did not reduce the Ca^2+ current”. Besides, the “effect on muscimol (500 nM)- or TACA (500 nM)-evoked Ca2+ signals” value in assay [2] is “blocked”.

Regarding `Clc1ccccc1C(c1ccccc1)(c1ccccc1)n1cccn1` [TRAM-34], at KCa3.1 channels, the “inhibition of GABA-induced increase in intracellular Ca2+ levels” value is approximately 100%.
